Assay results as given in patent publication US12377104B1, “Methods for treating a fatty liver disease” (Madrigal Pharmaceuticals, Inc., priority 2024, dated 2025).

System: NASH patients
Test: MAESTRO-NASH: efficacy by baseline body weight and BMI
Assay type: in vivo, human
Settings: for ≥30% Reduction in MRI-PDFF at Week 52, Assessment (%) / ≥120% Increase in SHBG at Week 52, Assessment (%): post hoc
Experimental: In the MAESTRO-NASH study, randomization to 80 mg and 100 mg doses was equal across all body weights. Analyses were conducted to provide additional evidence of a relationship between resmetirom dose, baseline body weight and body mass index (BMI), and safety/efficacy readouts. […] The only variable that determined exposure to resmetirom in the NASH population was body weight. […] Study median body weight was 100 kg. […] et al. (2024). CAP was stable over time, both doses showing a similar durable response (FIG. 30B).

[1] = Week 52 Paired Biopsies, 80 mg, >100 kg
[2] = Week 52 Paired Biopsies, 80 mg, ≤100 kg
[3] = Week 52 Paired Biopsies, 100 mg, >100 kg
[4] = Week 52 Paired Biopsies, 100 mg, ≤100 kg
[5] = Week 52 Primary Population, 80 mg, >100 kg
[6] = Week 52 Primary Population, 80 mg, ≤100 kg
[7] = Week 52 Primary Population, 100 mg, >100 kg
[8] = Week 52 Primary Population, 100 mg, ≤100 kg

CC(C)c1cc(Oc2c(Cl)cc(-n3nc(C#N)c(=O)[nH]c3=O)cc2Cl)n[nH]c1=O [Resmetirom, 2-(3,5-dichloro-4-((5-isopropyl-6-oxo-1,6-dihydropyridazin-3-yl)oxy)phenyl)-3,5-dioxo-2,3,4,5-tetrahydro-1,2,4-triazine-6-carbonitrile]
Week 52 Paired Biopsies Consensus NASH Resolution Responder: number (100 mg, 80-<90 kg): 16
Week 52 Paired Biopsies Consensus NASH Resolution Responder: percentage (in parentheses) (100 mg, 80-<90 kg): (39.0)
≥30% reduction in MRI-PDFF at Week 52: number of patients (100 mg, 80-<90 kg): 30
≥30% reduction in MRI-PDFF at Week 52: percentage of patients (in parentheses) (100 mg, 80-<90 kg): (76.9)
≥120% increase in SHBG at Week 52: number of patients (100 mg, 80-<90 kg): 27
≥120% increase in SHBG at Week 52: percentage of patients (in parentheses) (100 mg, 80-<90 kg): (62.8)
Discontinued Study Prior to Week 52: number (100 mg, 90-<100 kg): 15
Discontinued Study Prior to Week 52: percentage (in parentheses) (100 mg, 90-<100 kg): (25.4)
Week 52 MITT Consensus Fibrosis Improvement Responder: number (100 mg, 90-<100 kg): 12
Week 52 MITT Consensus Fibrosis Improvement Responder: percentage (in parentheses) (100 mg, 90-<100 kg): (20.3)
Week 52 MITT Consensus NASH Resolution Responder: number (100 mg, 90-<100 kg): 13
Week 52 MITT Consensus NASH Resolution Responder: percentage (in parentheses) (100 mg, 90-<100 kg): (22.0)
Week 52 Paired Biopsies Consensus Fibrosis Improvement Responder: number (100 mg, 90-<100 kg): 12
Week 52 Paired Biopsies Consensus Fibrosis Improvement Responder: percentage (in parentheses) (100 mg, 90-<100 kg): (29.3)
Week 52 Paired Biopsies Consensus NASH Resolution Responder: number (100 mg, 90-<100 kg): 13
Week 52 Paired Biopsies Consensus NASH Resolution Responder: percentage (in parentheses) (100 mg, 90-<100 kg): (31.7)
≥30% reduction in MRI-PDFF at Week 52: number of patients (100 mg, 90-<100 kg): 24
≥30% reduction in MRI-PDFF at Week 52: percentage of patients (in parentheses) (100 mg, 90-<100 kg): (70.6)
≥120% increase in SHBG at Week 52: number of patients (100 mg, 90-<100 kg): 28
≥120% increase in SHBG at Week 52: percentage of patients (in parentheses) (100 mg, 90-<100 kg): (63.6)
Discontinued Study Prior to Week 52: number (100 mg, 100-<110 kg): 9
Discontinued Study Prior to Week 52: percentage (in parentheses) (100 mg, 100-<110 kg): (17.6)
Week 52 MITT Consensus Fibrosis Improvement Responder: number (100 mg, 100-<110 kg): 14
Week 52 MITT Consensus Fibrosis Improvement Responder: percentage (in parentheses) (100 mg, 100-<110 kg): (27.5)
Week 52 MITT Consensus NASH Resolution Responder: number (100 mg, 100-<110 kg): 16
Week 52 MITT Consensus NASH Resolution Responder: percentage (in parentheses) (100 mg, 100-<110 kg): (31.4)
Week 52 Paired Biopsies Consensus Fibrosis Improvement Responder: number (100 mg, 100-<110 kg): 14
Week 52 Paired Biopsies Consensus Fibrosis Improvement Responder: percentage (in parentheses) (100 mg, 100-<110 kg): (35.0)
Week 52 Paired Biopsies Consensus NASH Resolution Responder: number (100 mg, 100-<110 kg): 16
Week 52 Paired Biopsies Consensus NASH Resolution Responder: percentage (in parentheses) (100 mg, 100-<110 kg): (40.0)
≥30% reduction in MRI-PDFF at Week 52: number of patients (100 mg, 100-<110 kg): 29
≥30% reduction in MRI-PDFF at Week 52: percentage of patients (in parentheses) (100 mg, 100-<110 kg): (70.7)
≥120% increase in SHBG at Week 52: number of patients (100 mg, 100-<110 kg): 27
≥120% increase in SHBG at Week 52: percentage of patients (in parentheses) (100 mg, 100-<110 kg): (62.8)
Discontinued Study Prior to Week 52: number (100 mg, <80 kg): 12
Discontinued Study Prior to Week 52: percentage (in parentheses) (100 mg, <80 kg): (21.4)
Week 52 MITT Consensus Fibrosis Improvement Responder: number (100 mg, <80 kg): 16
Week 52 MITT Consensus Fibrosis Improvement Responder: percentage (in parentheses) (100 mg, <80 kg): (28.6)
Week 52 MITT Consensus NASH Resolution Responder: number (100 mg, <80 kg): 14
Week 52 MITT Consensus NASH Resolution Responder: percentage (in parentheses) (100 mg, <80 kg): (25.0)
Week 52 Paired Biopsies Consensus Fibrosis Improvement Responder: number (100 mg, <80 kg): 16
Week 52 Paired Biopsies Consensus Fibrosis Improvement Responder: percentage (in parentheses) (100 mg, <80 kg): (40.0)
Week 52 Paired Biopsies Consensus NASH Resolution Responder: number (100 mg, <80 kg): 14
Week 52 Paired Biopsies Consensus NASH Resolution Responder: percentage (in parentheses) (100 mg, <80 kg): (35.0)
≥30% reduction in MRI-PDFF at Week 52: number of patients (100 mg, <80 kg): 24
≥30% reduction in MRI-PDFF at Week 52: percentage of patients (in parentheses) (100 mg, <80 kg): (64.9)
≥120% increase in SHBG at Week 52: number of patients (100 mg, <80 kg): 30
≥120% increase in SHBG at Week 52: percentage of patients (in parentheses) (100 mg, <80 kg): (68.2)
≥30% Reduction in MRI-PDFF at Week 52, Assessment (%) (100 mg, body weight >100 kg): 72.5%
≥120% Increase in SHBG at Week 52, Assessment (%) (100 mg, body weight >100 kg): 55.0%
≥30% Reduction in MRI-PDFF at Week 52, Assessment (%) (100 mg, body weight ≤100 kg): 71.7%
≥120% Increase in SHBG at Week 52, Assessment (%) (100 mg, body weight ≤100 kg): 64.2%
Discontinued Study Prior to Week 52: number (100 mg, ≥110 kg): 18
Discontinued Study Prior to Week 52: percentage (in parentheses) (100 mg, ≥110 kg): (16.7)
Week 52 MITT Consensus Fibrosis Improvement Responder: number (100 mg, ≥110 kg): 27
Week 52 MITT Consensus Fibrosis Improvement Responder: percentage (in parentheses) (100 mg, ≥110 kg): (25.0)
Week 52 MITT Consensus NASH Resolution Responder: number (100 mg, ≥110 kg): 30
Week 52 MITT Consensus NASH Resolution Responder: percentage (in parentheses) (100 mg, ≥110 kg): (27.8)
Week 52 Paired Biopsies Consensus Fibrosis Improvement Responder: number (100 mg, ≥110 kg): 27
Week 52 Paired Biopsies Consensus Fibrosis Improvement Responder: percentage (in parentheses) (100 mg, ≥110 kg): (31.4)
Week 52 Paired Biopsies Consensus NASH Resolution Responder: number (100 mg, ≥110 kg): 30
Week 52 Paired Biopsies Consensus NASH Resolution Responder: percentage (in parentheses) (100 mg, ≥110 kg): (34.9)
≥30% reduction in MRI-PDFF at Week 52: number of patients (100 mg, ≥110 kg): 53
≥30% reduction in MRI-PDFF at Week 52: percentage of patients (in parentheses) (100 mg, ≥110 kg): (74.6)
≥120% increase in SHBG at Week 52: number of patients (100 mg, ≥110 kg): 45
≥120% increase in SHBG at Week 52: percentage of patients (in parentheses) (100 mg, ≥110 kg): (50.6)
patients with worsening of VCTE (VCTE responder analyses at 1-3 years): less than 10%
Consensus Fibrosis Improvement, Assessment (%) [1]: 22.5%
Consensus NASH Resolution, Assessment (%) [1]: 27.0%
Consensus Fibrosis Improvement, Assessment (%) [2]: 35.4%
Consensus NASH Resolution, Assessment (%) [2]: 32.0%
Consensus Fibrosis Improvement, Assessment (%) [3]: 32.5%
Consensus NASH Resolution, Assessment (%) [3]: 35.8%
Consensus Fibrosis Improvement, Assessment (%) [4]: 33.6%
Consensus NASH Resolution, Assessment (%) [4]: 36.0%
Consensus Fibrosis Improvement, Assessment (%) [5]: 17.4%
Consensus NASH Resolution, Assessment (%) [5]: 20.8%
Consensus Fibrosis Improvement, Assessment (%) [6]: 29.2%
Consensus NASH Resolution, Assessment (%) [6]: 26.4%
Consensus Fibrosis Improvement, Assessment (%) [7]: 25.6%
Consensus NASH Resolution, Assessment (%) [7]: 28.2%
Consensus Fibrosis Improvement, Assessment (%) [8]: 25.1%
Consensus NASH Resolution, Assessment (%) [8]: 26.9%
